In US20180235919A1, “System and Method For Treating Atheroma Formation” (Lonza Inc., priority 2015, published 2018):

Experiments:
[1] = Plasma TMAO concentration by LC-MS; assay type: in vivo, mouse; details: high dose of L-carnitine (352 mg/kg), oral gavage once daily, ApoE KO/AAV-CETP mice (FIG. 4)
Protocol: (§1) ApoE KO mice, male and 6 to 7 weeks of age, were transfected in vivo with AAV-CETP. Two weeks after infection, CETP expression in plasma was verified using a commercially available ELISA kit, and the mice were placed on a Western (high-fat) diet.
(§2) The mice were sorted into several groups based on matching initial total cholesterol and verified CETP expression: 1 control group receiving a dose of dH2O. 2—a group receiving a high dose of L-carnitine (35.2 mg/mL dH2O). 3—a group receiving a low dose of L-carnitine (8.7mg/mL dH2O). 4—a group receiving a high dose of L-carnitine (35.2 mg/mL dH2O) and a dose of methimazaole (1.5 mg/mL dH2O). 5—a group receiving a dose of methimazaole (1.5 mg/mL dH2O).
(§3) Dosing began when the mice reached 10 weeks of age and continued for 12 weeks. Drugs were administered once daily by oral gavage. The animals' body weights were measured weekly.
The concentrations of L-carnitine and TMAO in the plasma were measured using a liquid chromatography mass spectrometry method. A deuterium labeled L-carnitine stock standard was prepared using the weigh by difference technique. About 5 mg of d9-L-carnitine from Cambridge Isotope Laboratories were added to a 10 mL volumetric flask via a weighing funnel or weighing paper, and water:methanol=1:1 was used to dissolve the sample. […]

[2] = system: mouse model of atherosclerosis; assay: Plaque in the aortic root (aortic sinus sections, hematoxylin and eosin); assay type: in vivo; details: after 12 weeks of treatment, ApoE KO/AAV-CETP mice on Western diet (FIG. 7)
Protocol: as §1, §2, §3

[3] = system: mouse model of atherosclerosis; assay: En face analysis of thoracic aorta lesions (Sudan IV staining); assay type: in vivo; details: for amount of plaque present in the thoracic aorta (en face analysis): after 12 weeks of treatment, ApoE KO/AAV-CETP mice on Western diet (FIG. 5)
Protocol: as §1, §2, §3
The effect of treatment with L-carnitine and/or methimazole on atherosclerosis progression was determined by measuring the amount of lesions present in the thoracic aorta and the sinotubular junction of the aortic root. After 12 weeks of treatment, the mice were sacrificed, and their tissues were removed for analysis. The En-face thoracic aortas were isolated and prepared for analysis by trimming present fat and fixing the aortas in formalin for 48-72 hours. For morphometric en face analysis, the aortas were laid out, pinned on black matrix, and stained with the lipid binding dye Sudan IV to determine the percentage of the thoracic aorta with lesion present. A Nikon computerized image analysis system was used to image the vessels for surface involvement.

[4] = Plasma L-carnitine concentration by LC-MS; assay type: in vivo, mouse; details: oral gavage once daily, ApoE KO/AAV-CETP mice (FIG. 3)
Protocol: as §1, §2, §3
The concentrations of L-carnitine and TMAO in the plasma were measured using a liquid chromatography mass spectrometry method. A deuterium labeled L-carnitine stock standard was prepared using the weigh by difference technique. About 5 mg of d9-L-carnitine from Cambridge Isotope Laboratories were added to a 10 mL volumetric flask via a weighing funnel or weighing paper, and water:methanol=1:1 was used to dissolve the sample. A deuterium labeled TMAO stock standard was prepared by accurately weighing 25±2 mg of d9-trimethylamine N-oxide reference standard, transferring the sample into a 25 mL volumetric flask, adding about 15 mL of water:methanol=1:1, and vortexing until dissolved. The flask was then filled to volume with water:methanol=1:1
Stock standards of deuterium labeled L-carnitine and deuterium labeled TMAO were prepared using 5 mg/10 mL water/methanol of d9-L-carnitine and 25 mg/25 mL water/methanol of d9-TMAO. These stock standards were used to prepare an internal standard by adding 200 μL of d9-L-carnitine stock standard and 10 μL of d9-TMAO into a 50 mL volumetric flask, adding acetonitrile to volume, and mixing well.
Calibration standards were then prepared. […]

| concentration of L-carnitine in the plasma compared to the control vehicle ([4]; high dose of L-carnitine (352 mg/kg)) | concentration of L-carnitine in the plasma compared to the control vehicle ([4]; low dose of L-carnitine (87 mg/kg)) | Structure (SMILES) | concentration of TMAO compared to the vehicle control [1] | amount of plaque in the aortic root [2] | amount of plaque present in the thoracic aorta (en face analysis) [3] | percent lesion area of the thoracic aorta ([3]; TMAO levels higher than 0.1 ppm versus TMAO levels lower than 0.1 ppm (FIG. 6)) | concentration of L-carnitine in comparison to the control vehicle ([4]; methimazole (15 mg/kg)) |
| --- | --- | --- | --- | --- | --- | --- | --- |
| significant increase | significant increase | C[N+](C)(C)C[C@H](O)CC(=O)[O-] [L-carnitine] | statistically significant increase | small but significant reductions | no significant changes | – | – |
| – | – | C[N+](C)(C)[O-] [TMAO, trimethylamine N-oxide] | – | – | – | significant decrease | – |
| – | – | Cn1cc[nH]c1=S [methimazole] | – | small but significant reductions | no significant changes | – | significant decrease |
